Tests used:
Assay in all cases: relative viability (nuclei count vs DMSO), 5 days (fraction); higher = more cells survive
BX 795 + Alpelisib = compound: O=C(NCCCNc1nc(Nc2cccc(NC(=O)N3CCCC3)c2)ncc1I)c1cccs1 [BX 795] + Cc1nc(NC(=O)N2CCC[C@H]2C(N)=O)sc1-c1ccnc(C(C)(C)C(F)(F)F)c1 [Alpelisib] (partner 2 µM)
How it was run: (§1)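 Five library-drug doses in √10 steps were combined with a fixed anchor-drug dose, or a single drug was given alone, by pin tool to lung cancer cell lines in 1536-well plates the day after seeding. Nuclei were stained and counted after 5 days. Relative viability is the nuclei count in treated wells over that in vehicle wells, taken as the median of duplicate plates.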

BX 795 + Foretinib = compound: O=C(NCCCNc1nc(Nc2cccc(NC(=O)N3CCCC3)c2)ncc1I)c1cccs1 [BX 795] + COc1cc2c(Oc3ccc(NC(=O)C4(C(=O)Nc5ccc(F)cc5)CC4)cc3F)ccnc2cc1OCCCN1CCOCC1 [Foretinib] (partner 0.25 µM)
How it was run: as §1

BX 795 + Navitoclax = compound: O=C(NCCCNc1nc(Nc2cccc(NC(=O)N3CCCC3)c2)ncc1I)c1cccs1 [BX 795] + CC1(C)CCC(c2ccc(Cl)cc2)=C(CN2CCN(c3ccc(C(=O)NS(=O)(=O)c4ccc(N[C@H](CCN5CCOCC5)CSc5ccccc5)c(S(=O)(=O)C(F)(F)F)c4)cc3)CC2)C1 [Navitoclax] (partner 0.5 µM)
How it was run: as §1

BX 795 + OSI-027 = compound: O=C(NCCCNc1nc(Nc2cccc(NC(=O)N3CCCC3)c2)ncc1I)c1cccs1 [BX 795] + COc1cccc2cc(-c3nc([C@H]4CC[C@H](C(=O)O)CC4)n4ncnc(N)c34)[nH]c12 [OSI-027] (partner 0.5 µM)
How it was run: as §1

BX 795 + Olaparib = compound: O=C(NCCCNc1nc(Nc2cccc(NC(=O)N3CCCC3)c2)ncc1I)c1cccs1 [BX 795] + O=C(c1cc(Cc2n[nH]c(=O)c3ccccc23)ccc1F)N1CCN(C(=O)C2CC2)CC1 [Olaparib] (partner 8 µM)
How it was run: as §1

Cell Line | relative viability (BX 795 + Alpelisib; first compound 0.04 µM) | relative viability (BX 795 + Alpelisib; first compound 0.1265 µM) | relative viability (BX 795 + Alpelisib; first compound 0.4 µM) | relative viability (BX 795 + Alpelisib; first compound 1.265 µM) | relative viability (BX 795 + Foretinib; first compound 0.04 µM) | relative viability (BX 795 + Foretinib; first compound 0.1265 µM) | relative viability (BX 795 + Foretinib; first compound 0.4 µM) | relative viability (BX 795 + Foretinib; first compound 1.265 µM) | relative viability (BX 795 + Navitoclax; first compound 0.04 µM) | relative viability (BX 795 + Navitoclax; first compound 0.1265 µM) | relative viability (BX 795 + Navitoclax; first compound 0.4 µM) | relative viability (BX 795 + Navitoclax; first compound 1.265 µM) | relative viability (BX 795 + OSI-027; first compound 0.04 µM) | relative viability (BX 795 + OSI-027; first compound 0.1265 µM) | relative viability (BX 795 + OSI-027; first compound 0.4 µM) | relative viability (BX 795 + OSI-027; first compound 1.265 µM) | relative viability (BX 795 + Olaparib; first compound 0.04 µM) | relative viability (BX 795 + Olaparib; first compound 0.1265 µM) | relative viability (BX 795 + Olaparib; first compound 0.4 µM) | relative viability (BX 795 + Olaparib; first compound 1.265 µM)
LXF-289 | 1.06 | 1.04 | 1.11 | 0.693 | 0.963 | 0.908 | 1.02 | 0.9 | 0.971 | 0.926 | 0.975 | 0.628 | 0.793 | 0.898 | 0.959 | 0.681 | 1.06 | 1.04 | 1.2 | 0.81
NCI-H23 | 0.659 | 0.737 | 0.743 | 0.526 | 0.943 | 0.872 | 1 | 0.472 | 0.983 | 0.916 | 0.672 | 0.355 | 0.6 | 0.701 | 0.621 | 0.506 | 0.335 | 0.308 | 0.247 | 0.225
NCI-H322M | 0.889 | 0.846 | 0.886 | 1 | 0.949 | 1.17 | 0.967 | 1.33 | 1.41 | 1.19 | 1.35 | 1.25 | 0.614 | 0.587 | 0.414 | 0.559 | 0.978 | 0.821 | 0.577 | 0.885
NCI-H441 | 0.779 | 0.748 | 1.42 | 0.552 | 1.28 | 0.908 | 1.18 | 0.796 | 0.867 | 0.429 | 1.03 | 0.564 | 0.731 | 0.57 | 0.891 | 0.399 | 0.665 | 0.623 | 0.497 | 0.413
NCI-H460 | 0.475 | 0.457 | 0.498 | 0.245 | 1.03 | 1.16 | 1.01 | 0.922 | 1.1 | 1.25 | 1.16 | 0.973 | 0.633 | 0.561 | 0.543 | 0.224 | 0.371 | 0.427 | 0.154 | 0.346
NCI-H520 | 0.859 | 0.91 | 0.786 | 0.444 | 0.555 | 0.772 | 0.832 | 0.365 | 0.736 | 1.12 | 0.95 | 0.535 | 0.226 | 0.255 | 0.19 | 0.201 | 0.334 | 0.357 | 0.307 | 0.22
NCI-H596 | 0.508 | 0.483 | 0.546 | 0.363 | 0.873 | 0.745 | 1.07 | 0.787 | 1.04 | 1.05 | 1.16 | 0.945 | 0.866 | 0.705 | 0.664 | 0.684 | 0.729 | 0.673 | 0.632 | 0.766
